Nine compounds from ChEMBL document CHEMBL1255371, “Clonal spread of highly beta-lactam-resistant Streptococcus pneumoniae isolates in Taiwan” (2008) can be followed below.

Values after ≈ are worked out from the molar mass of the structure shown.

By MIC50 is commonly meant an inhibitory concentration at the 50% level, which refers to growth in some studies and to a panel of isolates in others. As usually defined, the MIC90 is the lowest concentration that inhibits either 90% of growth or 90% of the strains tested, depending on the study. By MIC is commonly meant the least concentration at which growth counts as inhibited.

Common to all, as to assay type: functional
Test [1] deals with Streptococcus pneumoniae. The test is described as follows: Antimicrobial activity against beta-lactam resistant Streptococcus pneumoniae clinical isolate by broth dilution method. In general terms: In broth dilution the organism is exposed to a series of concentrations in liquid medium.
In test [2] the test system is Streptococcus pneumoniae. Description: Antimicrobial activity against Streptococcus pneumoniae isolated from meningitis patient assessed as percent resistant isolates by CLSI method.
The subject of test [3] is Streptococcus pneumoniae. The test is described as follows: Antimicrobial activity against Streptococcus pneumoniae isolated from meningitis patient assessed as percent susceptible isolates by CLSI method.
In test [4] the test system is Streptococcus pneumoniae. Description: Antimicrobial activity against Streptococcus pneumoniae in meningitis patients by broth dilution method.
For test [5], the system named is Streptococcus pneumoniae. The test is described as follows: Antimicrobial activity against Streptococcus pneumoniae in non-meningitis patients by broth dilution method.
The subject of test [6] is Streptococcus pneumoniae. Description: Antimicrobial activity against Streptococcus pneumoniae isolated from patient with bacterial infection by broth dilution method.
Test [7] deals with Streptococcus pneumoniae. The test is described as follows: Antimicrobial activity against Streptococcus pneumoniae isolated from non-meningitis patient assessed as percent resistant isolates by CLSI method.
Test [8] deals with Streptococcus pneumoniae. Description: Antimicrobial activity against Streptococcus pneumoniae isolated from cerebrospinal fluid of patient with bacterial infection by broth dilution method.
The test system of test [9] is Streptococcus pneumoniae. The test is described as follows: Antimicrobial activity against Streptococcus pneumoniae isolated from non-meningitis patient assessed as percent susceptible isolates by CLSI method.

In the case of `CCCCCCCCCC(=O)N[C@@H](Cc1c[nH]c2ccccc12)C(=O)N[C@H](CC(N)=O)C(=O)N[C@@H](CC(=O)O)C(=O)N[C@@H]1C(=O)NCC(=O)N[C@@H](CCCN)C(=O)N[C@@H](CC(=O)O)C(=O)N[C@H](C)C(=O)N[C@@H](CC(=O)O)C(=O)NCC(=O)N[C@H](CO)C(=O)N[C@@H]([C@H](C)CC(=O)O)C(=O)N[C@@H](CC(=O)c2ccccc2N)C(=O)O[C@@H]1C`, in the test on Streptococcus pneumoniae [1], the MIC50 was determined as 0.06 µg/mL (≈ 0.037 µM) and the MIC90 was determined as 0.06 µg/mL (≈ 0.037 µM).

In the test with Streptococcus pneumoniae [1], `CN(C)c1cc(NC(=O)CNC(C)(C)C)c(O)c2c1C[C@H]1C[C@H]3[C@H](N(C)C)C(O)=C(C(N)=O)C(=O)[C@@]3(O)C(O)=C1C2=O` [TIGECYCLINE] came in with an MIC of no more than 0.015 µg/mL, an MIC50 of no more than 0.015 µg/mL and an MIC90 of 0.03 µg/mL (≈ 0.0512 µM).

Take `CO/N=C1\CN(c2nc3c(cc2F)c(=O)c(C(=O)O)cn3C2CC2)CC1CN` (stereo unspecified) [GEMIFLOXACIN]: the Activity in the test with Streptococcus pneumoniae [2] is 1.1%. Also, the Activity in the test with Streptococcus pneumoniae [3] was 98.9%. Moreover, in the test on Streptococcus pneumoniae [1], the MIC was no more than 0.03 µg/mL, the MIC50 was no more than 0.03 µg/mL and the MIC90 is no more than 0.03 µg/mL.

In the case of `CN[C@H](CC(C)C)C(=O)N[C@H]1C(=O)N[C@@H](CC(N)=O)C(=O)N[C@H]2C(=O)N[C@H]3C(=O)N[C@H](C(=O)N[C@H](C(=O)O)c4cc(O)cc(O)c4-c4cc3ccc4O)[C@H](O)c3ccc(c(Cl)c3)Oc3cc2cc(c3O[C@@H]2O[C@H](CO)[C@@H](O)[C@H](O)[C@H]2O[C@H]2C[C@](C)(N)[C@H](O)[C@H](C)O2)Oc2ccc(cc2Cl)[C@H]1O` [VANCOMYCIN], the Activity in the test on Streptococcus pneumoniae [2] worked out at 0%. In the test on Streptococcus pneumoniae [3], the Activity amounted to 100%. In addition, in the test on Streptococcus pneumoniae [1], the MIC50 was determined as 0.25 µg/mL (≈ 0.173 µM) and the MIC90 was 0.5 µg/mL (≈ 0.345 µM).

`CC1(C)S[C@@H]2[C@H](NC(=O)Cc3ccccc3)C(=O)N2[C@H]1C(=O)O` [PENICILLIN G]: the Activity amounted to 44.5% in the test on Streptococcus pneumoniae [2] and 16.8% in the test with Streptococcus pneumoniae [3]. For the same compound, the minimum inhibitory concentration (MIC) was no less than 0.1 µg/mL in the test on Streptococcus pneumoniae [4], no less than 4 µg/mL against Streptococcus pneumoniae [5] and no less than 0.1 µg/mL against Streptococcus pneumoniae [6]. The compound also displayed an MIC50 in the test with Streptococcus pneumoniae [1] of 1 µg/mL (≈ 2.99 µM). In the test on Streptococcus pneumoniae [1], this compound came in with an MIC90 of 2 µg/mL (≈ 5.98 µM).

`C[C@H]1COc2c(N3CCN(C)CC3)c(F)cc3c(=O)c(C(=O)O)cn1c23.C[C@H]1COc2c(N3CCN(C)CC3)c(F)cc3c(=O)c(C(=O)O)cn1c23.O` [LEVOFLOXACIN]: the results for the Activity in the test with Streptococcus pneumoniae [2] and in the test with Streptococcus pneumoniae [3] were 1.9% and 98.1%, respectively. In the test on Streptococcus pneumoniae [1], the MIC50 came out at 1 µg/mL. Moreover, the MIC90 with Streptococcus pneumoniae [1] was determined as 1 µg/mL.

`CC[C@H]1OC(=O)[C@H](C)[C@@H](O[C@H]2C[C@@](C)(OC)[C@@H](O)[C@H](C)O2)[C@H](C)[C@@H](O[C@@H]2O[C@H](C)C[C@H](N(C)C)[C@H]2O)[C@](C)(O)C[C@@H](C)C(=O)[C@H](C)[C@@H](O)[C@]1(C)O` [ERYTHROMYCIN]: the Activity in the test with Streptococcus pneumoniae [2] amounted to 90.9%; with Streptococcus pneumoniae [3], 6.9%. The compound further gave an MIC50 with Streptococcus pneumoniae [1] greater than 32 µg/mL. Moreover, the MIC90 against Streptococcus pneumoniae [1] is greater than 32 µg/mL.

As for `Nc1nc(/C(=N/O)C(=O)N[C@@H]2C(=O)N3C(C(=O)O)=C(/C=C4\CCN([C@@H]5CCNC5)C4=O)CS[C@H]23)ns1` [CEFTOBIPROLE], in the test on Streptococcus pneumoniae [1], the MIC50 worked out at 0.25 µg/mL (≈ 0.468 µM) and the MIC90 turned out to be 0.5 µg/mL (≈ 0.935 µM).

Turning to `CO/N=C(\C(=O)N[C@@H]1C(=O)N2C(C(=O)O)=C(COC(C)=O)CS[C@H]12)c1csc(N)n1` [CEFOTAXIME], the Activity in the test on Streptococcus pneumoniae [2] was determined as 6.9%; with Streptococcus pneumoniae [7], 1.4%; with Streptococcus pneumoniae [3], 58.5%; in the test on Streptococcus pneumoniae [9] it was 93.1%. In addition, the MIC with Streptococcus pneumoniae [8] was 1 µg/mL (≈ 2.2 µM); with Streptococcus pneumoniae [4] it was 1 µg/mL (≈ 2.2 µM); against Streptococcus pneumoniae [5], less than 2 µg/mL; with Streptococcus pneumoniae [6], no less than 2 µg/mL. The compound also gave an MIC50 against Streptococcus pneumoniae [1] of 0.5 µg/mL (≈ 1.1 µM). Also, the MIC90 in the test with Streptococcus pneumoniae [1] amounted to 1 µg/mL (≈ 2.2 µM).
